How the values were obtained:
[1] = biological target: T1, Cbl-b (Homo sapiens, UniProt Q13191); experiment: Cbl-b inhibition assay (Cbl-b activity assay, FRET, Biological Example 1; 100 mM NaCl, 60 nM Src kinase); type: biochemical; conditions: upper bound stated in text lists; read-out: IC50 values in the Cbl-b inhibition assay of Biological Example 1
In short: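 TR-FRET assay using N-terminal biotinylated Avi-tagged Cbl-b bound to streptavidin-terbium, Src kinase for Cbl-b phosphorylation, and UbcH5B irreversibly conjugated to Bodipy-Fluorescein-ubiquitin. Phosphorylated Cbl-b binds UbcH5B-Ub, bringing the fluorophores together; inhibition is read as loss of FRET signal.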

[2] = biological target: T1, Cbl-b; experiment: Cbl-b activity assay (Cbl-b inhibition assay), TR-FRET of Cbl-b interaction with UbcH5B-Ub; type: biochemical
In short: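 Compound-treated Cbl-b was incubated 1.5 h with Src kinase (60 nM final; 30 nM for asterisked values, which also used 50 mM instead of 100 mM NaCl), 1 mM ATP and 5 mM MgCl2. Binding to fluorescent Ub-loaded UbcH5B (C85K mutant) was then read by TR-FRET after 1 h more.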

[3] = biological target: Cbl-b (residues 36-427) (Homo sapiens, UniProt Q13191); experiment: Cbl-b binding assay (SPR, Biacore T200); conditions: 20° C., 1:1 binding model
In short: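 NeutrAvidin capture chip, 20° C; 50 s injections at 50 μl/min, 90-180 s dissociation; 0.3 M NaCl regeneration. Asterisked column: 50 mM NaCl buffer and 30 nM Src kinase in place of 100 mM NaCl and 60 nM Src kinase. 1:1 fit.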

[4] = assay buffer with 100 mM NaCl, 60 nM Src kinase, read-out: Cbl-b activity IC50

Sequence of Cbl-b (residues 36-427) (Q13191 36-427): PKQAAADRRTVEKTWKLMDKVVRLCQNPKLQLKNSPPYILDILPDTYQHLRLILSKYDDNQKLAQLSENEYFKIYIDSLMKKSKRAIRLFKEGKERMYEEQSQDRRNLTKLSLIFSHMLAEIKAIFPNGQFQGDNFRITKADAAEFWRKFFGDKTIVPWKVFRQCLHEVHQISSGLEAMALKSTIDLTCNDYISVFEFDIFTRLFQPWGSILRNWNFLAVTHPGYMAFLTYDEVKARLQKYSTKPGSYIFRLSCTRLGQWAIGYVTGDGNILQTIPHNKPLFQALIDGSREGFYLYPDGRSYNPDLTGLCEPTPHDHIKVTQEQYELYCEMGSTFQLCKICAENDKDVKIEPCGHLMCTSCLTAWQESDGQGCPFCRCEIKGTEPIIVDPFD
T1 sequence (Q13191 36-427): as above

`C=CCC(Sc1nncn1C)c1cccc(NC(=O)c2cc3ccccc3cn2)c1` (stereo not shown) [Compound 135, N-[3-[1-[(4-methyl-1,2,4-triazol-3-yl)sulfanyl]but-3-enyl]phenyl]isoquinoline-3-carboxamide] was tested, and the IC50 [1] was ≤ 10 µM, the IC50 ([2]; * assay buffer containing 50 mM NaCl instead of 100 mM NaCl and 30 nM Src kinase instead of 60 nM, read-out: Cbl-b activity IC50 (μM)*) was 3 to 10 µM and the IC50 [2, 4] was 1 to 3 µM. The Kd [3] was > 10 µM.
In the case of `C[C@H](Sc1nncn1C)c1cccc(NC(=O)c2cc(C(=O)N3CCCC3)ccn2)c1` [Compound 138, (S)-N-(3-(1-((4-methyl-4H-1,2,4-triazol-3-yl)thio)ethyl)phenyl)-4-(pyrrolidine-1-carbonyl)picolinamide], the IC50 [1] is reported as ≤ 10 µM, the IC50 [2, 4] is reported as 3 to 10 µM and the Kd [3] is reported as > 10 µM.
In the case of `C[C@H](Sc1nncn1C)c1cccc(NC(=O)c2cc(C(=O)N3CC[C@@H](O)C3)ccn2)c1` [Compound 139, 4-((R)-3-hydroxypyrrolidine-1-carbonyl)-N-(3-((S)-1-((4-methyl-4H-1,2,4-triazol-3-yl)thio)ethyl)phenyl)picolinamide], the IC50 [1] is reported as ≤ 10 µM, the IC50 [2, 4] is reported as 3 to 10 µM and the Kd [3] is reported as 3 to 10 µM.
With `CO[C@@H]1CCN(C(=O)c2ccnc(C(=O)Nc3cccc([C@H](C)Sc4nncn4C)c3)c2)C1` [Compound 141, 4-((R)-3-methoxypyrrolidine-1-carbonyl)-N-(3-((S)-1-((4-methyl-4H-1,2,4-triazol-3-yl)thio)ethyl)phenyl)picolinamide] the IC50 [1] was ≤ 10 µM, the IC50 [2, 4] was 3 to 10 µM and the Kd [3] was 3 to 10 µM.
With `C[C@H](Sc1nncn1C)c1cccc(NC(=O)c2cc(C(=O)N3CCC3)ccn2)c1` [Compound 143, (S)-4-(azetidine-1-carbonyl)-N-(3-(1-((4-methyl-4H-1,2,4-triazol-3-yl)thio)ethyl)phenyl)picolinamide] the IC50 [1] was ≤ 10 µM, the IC50 [2, 4] was 3 to 10 µM and the Kd [3] was 3 to 10 µM.
`C[C@H](Sc1nncn1C)c1cccc(NC(=O)c2cc(C(=O)N3CCCCC3)ccn2)c1` [Compound 144, (S)-N-(3-(1-((4-methyl-4H-1,2,4-triazol-3-yl)thio)ethyl)phenyl)-4-(piperidine-1-carbonyl)picolinamide] was tested, and the IC50 [1] was ≤ 10 µM, the IC50 [2, 4] was 3 to 10 µM and the Kd [3] was 3 to 10 µM.
In the case of `C[C@H](Sc1nncn1C)c1cccc(NC(=O)c2cc(C(=O)N3CCC(O)CC3)ccn2)c1` [Compound 145, (S)-4-(4-hydroxypiperidine-1-carbonyl)-N-(3-(1-((4-methyl-4H-1,2,4-triazol-3-yl)thio)ethyl)phenyl)picolinamide], the IC50 [1] is reported as ≤ 10 µM, the IC50 [2, 4] is reported as 1 to 3 µM and the Kd [3] is reported as 3 to 10 µM.
In the case of `C[C@H](Sc1nncn1C)c1cccc(NC(=O)c2cc(C(=O)N3CC[C@@H](N)C3)ccn2)c1` [Compound 146, 4-((R)-3-aminopyrrolidine-1-carbonyl)-N-(3-((S)-1-((4-methyl-4H-1,2,4-triazol-3-yl)thio)ethyl)phenyl)picolinamide], the IC50 [1] is reported as ≤ 10 µM, the IC50 [2, 4] is reported as 3 to 10 µM and the Kd [3] is reported as 3 to 10 µM.
For `C[C@H](Sc1nncn1C)c1cccc(NC(=O)c2cc(C(=O)N3CC[C@H](N)C3)ccn2)c1` [Compound 147, 4-((S)-3-aminopyrrolidine-1-carbonyl)-N-(3-((S)-1-(4-methyl-4H-1,2,4-triazol-3-ylthio)ethyl)phenyl)picolinamide], the IC50 [1] was ≤ 10 µM, the IC50 [2, 4] was 3 to 10 µM and the Kd [3] was 3 to 10 µM.
With `C[C@H](Sc1nncn1C)c1cccc(NC(=O)c2cc(C(=O)N3CCC[C@@H](O)C3)ccn2)c1` [Compound 149, 4-((R)-3-hydroxypiperidine-1-carbonyl)-N-(3-((S)-1-((4-methyl-4H-1,2,4-triazol-3-yl)thio)ethyl)phenyl)picolinamide] the IC50 [1] was ≤ 10 µM, the IC50 [2, 4] was 3 to 10 µM and the Kd [3] was > 10 µM.
For `C[C@H](Sc1nncn1C)c1cccc(NC(=O)c2cc(C(=O)N3CCC[C@H](O)C3)ccn2)c1` [Compound 150, 4-((S)-3-hydroxypiperidine-1-carbonyl)-N-(3-((S)-1-((4-methyl-4H-1,2,4-triazol-3-yl)thio)ethyl)phenyl)picolinamide], the IC50 [1] was ≤ 10 µM, the IC50 [2, 4] was 3 to 10 µM and the Kd [3] was > 10 µM.
With `C[C@H](Sc1nncn1C)c1cccc(NC(=O)c2cc(C(=O)N3C[C@@H](O)C[C@H]3C)ccn2)c1` [Compound 152, 4-((2R,4S)-4-hydroxy-2-methylpyrrolidine-1-carbonyl)-N-(3-((S)-1-((4-methyl-4H-1,2,4-triazol-3-yl)thio)ethyl)phenyl)picolinamide] the IC50 [1] was ≤ 10 µM, the IC50 [2, 4] was 3 to 10 µM and the Kd [3] was 3 to 10 µM.
With `C[C@H](Sc1nncn1C)c1cccc(NC(=O)c2cc(C(=O)N3C[C@H](O)C[C@H]3C)ccn2)c1` [Compound 153, 4-((2R,4R)-4-hydroxy-2-methylpyrrolidine-1-carbonyl)-N-(3-((S)-1-((4-methyl-4H-1,2,4-triazol-3-yl)thio)ethyl)phenyl)picolinamide] the IC50 [1] was ≤ 10 µM, the IC50 [2, 4] was 3 to 10 µM and the Kd [3] was > 10 µM.
In the case of `C[C@H](Sc1nncn1C)c1cccc(NC(=O)c2cc(C(=O)N3C[C@@H](O)C[C@@H]3C)ccn2)c1` [Compound 154, 4-((2S,4S)-4-hydroxy-2-methylpyrrolidine-1-carbonyl)-N-(3-((S)-1-((4-methyl-4H-1,2,4-triazol-3-yl)thio)ethyl)phenyl)picolinamide], the IC50 [1] is reported as ≤ 10 µM, the IC50 [2, 4] is reported as 3 to 10 µM and the Kd [3] is reported as > 10 µM.
For `C[C@H](Sc1nncn1C)c1cccc(NC(=O)c2cc(C(=O)N3C[C@H](O)[C@@H](O)C3)ccn2)c1` [Compound 155, 4-[[(3S,4S)-3,4-dihydroxypyrrolidin-1-yl]carbonyl]-N-[3-[(1S)-1-[(4-methyl-4H-1,2,4-triazol-3-yl)sulfanyl]ethyl]phenyl]pyridine-2-carboxamide], the IC50 [1] was ≤ 10 µM, the IC50 [2, 4] was 1 to 3 µM and the Kd [3] was 3 to 10 µM.
`C[C@H](Sc1nncn1C)c1cccc(NC(=O)c2cc(C(=O)NC[C@@H](C)O)ccn2)c1` [Compound 156, N^4-((R)-2-hydroxypropyl)-N^2-(3-((S)-1-((4-methyl-4H-1,2,4-triazol-3-yl)thio)ethyl)phenyl)pyridine-2,4-dicarboxamide] was tested, and the IC50 [1] was ≤ 10 µM, the IC50 [2, 4] was 3 to 10 µM and the Kd [3] was 3 to 10 µM.
`C[C@H](O)CNC(=O)c1ccnc(C(=O)Nc2cccc([C@H](C)Sc3nncn3C)c2)c1` [Compound 157, N^4-((S)-2-hydroxypropyl)-N^2-(3-((S)-1-((4-methyl-4H-1,2,4-triazol-3-yl)thio)ethyl)phenyl)pyridine-2,4-dicarboxamide] was tested, and the IC50 [1] was ≤ 10 µM, the IC50 [2, 4] was 3 to 10 µM and the Kd [3] was 3 to 10 µM.
`C[C@H](Sc1nncn1C)c1cccc(NC(=O)c2cc(C(=O)N3CC[C@@H](N(C)C)C3)ccn2)c1` [Compound 159, 4-((R)-3-(dimethylamino)pyrrolidine-1-carbonyl)-N-(3-((S)-1-((4-methyl-4H-1,2,4-triazol-3-yl)thio)ethyl)phenyl)picolinamide] was tested, and the IC50 [1] was ≤ 10 µM, the IC50 [2, 4] was 3 to 10 µM and the Kd [3] was 3 to 10 µM.
With `C[C@H](Sc1nncn1C)c1cccc(NC(=O)c2cc(C(=O)N3CC[C@H](N(C)C)C3)ccn2)c1` [Compound 160, 4-((S)-3-(dimethylamino)pyrrolidine-1-carbonyl)-N-(3-((S)-1-((4-methyl-4H-1,2,4-triazol-3-yl)thio)ethyl)phenyl)picolinamide] the IC50 [1] was ≤ 10 µM, the IC50 [2, 4] was 3 to 10 µM and the Kd [3] was 3 to 10 µM.
In the case of `C[C@@H](Sc1nncn1C)c1cccc(NC(=O)c2cc(C(=O)N3CC[C@H](O)C3)ccn2)c1` [Compound 161, 4-[[(3S)-3-hydroxypyrrolidin-1-yl]carbonyl]-N-[3-[(1R)-1-[(4-methyl-4H-1,2,4-triazol-3-yl)sulfanyl]ethyl]phenyl]pyridine-2-carboxamide], the IC50 [1] is reported as ≤ 10 µM, the IC50 [2, 4] is reported as 3 to 10 µM and the Kd [3] is reported as > 10 µM.

From patent US20220324835A1 (Nurix Therapeutics, Inc., priority 2018, published 2022)
